Consider three molecules from patent publication US10358663B2, “Method of production of 2,4-dihydroxybutyric acid” (ADISSEO FRANCE S.A.S., priority 2010, dated 2019).

Changes are numbered by the printed parent chain.

One test has as its target T1, malic enzyme (Rattus norvegicus, UniProt P13697).
T1 sequence (P13697 1-572): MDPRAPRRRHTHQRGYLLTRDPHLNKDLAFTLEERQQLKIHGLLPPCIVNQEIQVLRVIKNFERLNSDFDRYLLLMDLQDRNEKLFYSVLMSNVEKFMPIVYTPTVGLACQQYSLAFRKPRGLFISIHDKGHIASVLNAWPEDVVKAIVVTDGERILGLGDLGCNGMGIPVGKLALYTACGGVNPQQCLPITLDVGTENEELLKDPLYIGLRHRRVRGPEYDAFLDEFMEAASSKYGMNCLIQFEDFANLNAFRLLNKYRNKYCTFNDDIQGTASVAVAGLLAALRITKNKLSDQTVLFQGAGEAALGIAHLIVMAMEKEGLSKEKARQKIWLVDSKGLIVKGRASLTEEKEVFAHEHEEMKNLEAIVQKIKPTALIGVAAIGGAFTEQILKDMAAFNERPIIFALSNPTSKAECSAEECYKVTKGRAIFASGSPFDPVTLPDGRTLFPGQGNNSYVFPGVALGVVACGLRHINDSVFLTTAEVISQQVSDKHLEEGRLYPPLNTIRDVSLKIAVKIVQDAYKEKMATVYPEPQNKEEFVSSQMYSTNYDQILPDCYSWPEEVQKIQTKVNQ
The note with it: cited from earlier work.

Test [1] addresses E. coli aspartate kinase LysC variant E119G T344M, SEQ ID NO: 41 (Escherichia coli, UniProt P08660, E119G/T344M). In words: Lysine inhibition of malate kinase activity, LysC E119G T344M. Type of test: biochemical. The settings on record: elevated lysine concentrations. On the procedure: (§1) The assay mixture contained 50 mM Hepes (pH 7.5), 50 mM KCl, 5 mM MgCl2, 0.24 mM NADH, 0.96 mM ATP, 0.96 mM PEP, 9 μg/mL of lactate dehydrogenase (Sigma, L2500), 12.4 μg/mL pyruvate kinase (Sigma, P1506), and appropriate amounts of purified aspartate (malate) kinase. Reactions were started by adding 50 mM (L)-aspartate or (L)-malate. Enzymatic assays were carried out at 30° C. in 96-well flat bottomed microtiter plates in a final volume of 250 μL. The reactions were followed by the characteristic absorption of NADH at 340 nm in a microplate reader (BioRad 680XR).
(§2) Expression and purification of enzymes: Protein expression for the His-tagged enzymes LysC E119G, LysC E119G E250K, LysC E119G T344M, LysC E119G S345L, LysC E119G T352I was carried out as described in Example 1.
(§3) Enzymatic assay: Malate kinase activities were assayed as described in Example 1. Lysine concentration in the reaction buffer was varied.

In test [2] the target is E. coli aspartate kinase LysC variant E119G S345L, SEQ ID NO: 45 (Escherichia coli, UniProt P08660, E119G/S345L). In words: Lysine inhibition of malate kinase activity, LysC E119G S345L. The settings on record: elevated lysine concentrations. It counts as biochemical. On the procedure:
as §1, §2, §3

Test [3] has as its target E. coli aspartate kinase LysC variant E119G E250K, SEQ ID NO: 39 (Escherichia coli, UniProt P08660, E119G/E250K). In words: Lysine inhibition of malate kinase activity, LysC E119G E250K. It counts as biochemical. The settings on record: elevated lysine concentrations. On the procedure: as §1, §2, §3
Test [4] deals with T2, Metallosphaera sedula succinic semialdehyde reductase Ms-SSR variant H39R N43H, SEQ ID NO: 81 (Metallosphaera sedula, UniProt A4YGN0, H39R/N43H).
T2 sequence (A4YGN0 1-360 H39R/N43H): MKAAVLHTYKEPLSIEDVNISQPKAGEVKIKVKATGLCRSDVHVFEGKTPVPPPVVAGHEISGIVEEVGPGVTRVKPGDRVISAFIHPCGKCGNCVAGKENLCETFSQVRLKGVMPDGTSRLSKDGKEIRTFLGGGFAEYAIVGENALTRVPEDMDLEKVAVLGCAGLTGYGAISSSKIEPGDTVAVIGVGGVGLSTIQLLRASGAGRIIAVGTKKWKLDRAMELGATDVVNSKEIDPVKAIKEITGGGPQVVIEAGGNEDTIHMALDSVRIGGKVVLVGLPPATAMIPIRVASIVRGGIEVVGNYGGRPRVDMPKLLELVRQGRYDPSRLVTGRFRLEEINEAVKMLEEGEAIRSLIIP
In words: Malate semialdehyde reductase assay, Ms-SSR H39R N43H. It counts as biochemical. The note with it: pH 7.5, 30° C. On the procedure:
(§4) Test for Malate Semialdehyde Reductase Activity: Reaction: (L)-Malate semialdehyde+NAD(P)H→(L)-2,4-dihydroxybutyric acid+NAD(P)
(§5) The assay mixture contained 200 mM Hepes (pH 7.5), 50 mM KCl, 5 mM MgCl2, 0.24 mM NADH or NADPH, and appropriate amounts of purified enzyme. Reactions were started by adding 10 mM (L)-malate semialdehyde (malate semialdehyde was prepared freshly for each test, see Example 4). Enzymatic assays were carried out at 30° C. in 96-well flat bottomed microtiter plates in a final volume of 250 μL. The reactions were followed by the characteristic absorption of NAD(P)H at 340 nm in a microplate reader (BioRad 680XR).
(§6) Site-directed mutagenesis was carried out using the oligonucleotide pairs listed in Table 8 and the pMs-SSR plasmid as the template. Point mutations to change the amino acid sequences were introduced by PCR (Phusion 1U, HF buffer 20% (v/v), dNTPs 2.5 mM, direct and reverse primers 1 μM each, template plasmid 200 ng, water). When possible, plasmids created by PCR contained new restriction sites (introduced using silent mutations) in addition to the functional mutation to facilitate identification of mutated clones. The PCR products were digested by DpnI at 37° C. for 1 h to remove template DNA, and transformed into NEB 5-alpha competent E. coli cells (NEB). […]

Test [5] addresses T3, Metallosphaera sedula succinic semialdehyde reductase Ms-SSR variant N43H, SEQ ID NO: 227 (Metallosphaera sedula, UniProt A4YGN0, N43H).
T3 sequence (A4YGN0 1-360 N43H): T2 sequence (A4YGN0 1-360 H39R/N43H) with R39H
In words: Malate semialdehyde reductase assay, Ms-SSR N43H. Type of test: biochemical. The settings on record: pH 7.5, 30° C. On the procedure: as §4, §5, §6

In test [6] the target is T4, Metallosphaera sedula succinic semialdehyde reductase Ms-SSR, wild type, SEQ ID NO: 76 (Metallosphaera sedula, UniProt A4YGN0).
T4 sequence (A4YGN0 1-360): T2 sequence (A4YGN0 1-360 H39R/N43H) with R39H, H43N
In words: Malate semialdehyde reductase assay, Ms-SSR wild type. The settings on record: pH 7.5, 30° C. It counts as biochemical. On the procedure:
as §4, §5

For test [7], the target named is T5, Metallosphaera sedula succinic semialdehyde reductase Ms-SSR variant H39R, SEQ ID NO: 225 (Metallosphaera sedula, UniProt A4YGN0, H39R).
T5 sequence (A4YGN0 1-360 H39R): T2 sequence (A4YGN0 1-360 H39R/N43H) with H43N
In words: Malate semialdehyde reductase assay, Ms-SSR H39R. The note with it: pH 7.5, 30° C. Type of test: biochemical. On the procedure: as §4, §5, §6

E. coli aspartate kinase LysC variant E119G S345L, SEQ ID NO: 45, sequence (P08660 whole entry E119G/S345L): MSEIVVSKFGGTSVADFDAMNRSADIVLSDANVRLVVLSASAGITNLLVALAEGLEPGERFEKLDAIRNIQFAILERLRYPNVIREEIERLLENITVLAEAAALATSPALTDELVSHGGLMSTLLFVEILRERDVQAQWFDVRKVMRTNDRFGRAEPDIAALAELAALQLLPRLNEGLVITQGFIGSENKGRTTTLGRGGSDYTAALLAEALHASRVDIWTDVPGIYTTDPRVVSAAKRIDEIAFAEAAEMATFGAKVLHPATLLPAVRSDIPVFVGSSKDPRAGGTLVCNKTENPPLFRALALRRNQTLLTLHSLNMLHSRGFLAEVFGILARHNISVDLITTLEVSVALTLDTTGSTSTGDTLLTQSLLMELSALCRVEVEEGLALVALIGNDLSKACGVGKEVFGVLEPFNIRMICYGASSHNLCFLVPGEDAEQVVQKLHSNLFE
E. coli aspartate kinase LysC variant E119G E250K, SEQ ID NO: 39, sequence (P08660 whole entry E119G/E250K): as the sequence (P08660 whole entry E119G/S345L) above, with E250K, L345S counted along it
E. coli aspartate kinase LysC variant E119G T344M, SEQ ID NO: 41, sequence (P08660 whole entry E119G/T344M): as the sequence (P08660 whole entry E119G/S345L) above, with T344M, L345S counted along it

Regarding `O=C(O)C(O)CCO` (centres unmarked) [DHB, 2,4-dihydroxybutyric acid], the “Mode of inhibition of malic enzyme” value on malic enzyme is given as “competitive inhibitor”.
In the case of `NCCCC[C@H](N)C(=O)O` [lysine], the “sensitivity of malate kinase activity to lysine” value in test [1], in test [2] and in test [3] was “largely insensitive” each time.
For `O=CC[C@H](O)C(=O)O` [malate semialdehyde, (L)-malate semialdehyde], the Maximum activity in test [4] is 4.7 μmol/(min* mgprot); in test [5] it was 4.3 μmol/(min* mgprot); in test [6], 4.9 μmol/(min* mgprot); in test [7], 1.7 μmol/(min* mgprot).
